This is an account of results in publication PMC8856561, “Pharmacological and genetic activation of cAMP synthesis disrupts cholesterol utilization in Mycobacterium tuberculosis” (PLoS Pathogens, 2022).

Each structure is given as a SMILES string. Values after ≈ are worked out from the molar mass of the structure shown. Read-outs that look alike come from different tables or passages of the source.

The nature of data set [1]: in vitro. Particulars: CD-1, mouse, plasma.
The test system of data set [2] is Mtb. Format: cell-based, Mycobacterium tuberculosis. Particulars: for 14CO2 release from [4-14C]-cholesterol: 10 μM.
For data set [3] the following is noted: 0.98 µM, pH 7.2.
Description: Liver microsomal stability
(§1) Liver microsomes from mouse (Xenotech), human (Corning) rat (Xenotech) and dog (Xenotech)
(§2) were prepared in potassium phosphate buf fer (100 mM) pH 7. 2. Experimental compounds were
(§3) dissolved in DMSO (100%) to a stock concentration of 10 mmol. A working compound solution
(§4) was made by diluting 5 µL of compound stock into 495 µL of acetonitrile (100%) to the final
(§5) concentration of compound (100 µM) and acetonitrile (99%). Similarly, positive control
(§6) compounds (Testosterone, Dichlofenac, and Propafenone) were dissolved in DMSO (100% to a
(§7) stock concentration of 10 mM in DMSO, and were diluted with 495 µL of acetonitrile (100%) to
(§8) the final concentration of compound (100 µM) and acetonitrile (99%). NADPH•4Na was dissolved
(§9) into a 10 mM MgCl2 solution (10 unit/mL) generating as a 10x cofactor stock. Pre-warmed
(§10) incubation plates were filled with 445 µL potassium phosphate buffer and incubated for 10 min at
(§11) 37°C with constant shaking. Liver microsomes (54 µL) liver and NADPH stock (6 µL) were added
(§12) to the plates. Working solution of compounds (5 µL) was added into the incubation plates
(§13) containing microsomes and mixed thoroughly before incubating at 37°C for 60 min under constant
(§14) shaking at 100 rpm. Reactions were stopped by the addition of 100 µl cold acetonitrile (100%)
(§15) containing the internal standards tolbutamide (200 ng/mL) and labetalol (200 ng/mL). All plates
(§16) were shaken for 10 min, then centrifuged at 4000 rpm for 20 minutes at 4°C. The cell free
(§17) supernatant was transferred into HPLC water and mixed by shaking the plate for 10 min minutes
(§18) prior to metabolite quantification by LC-MS/MS a nalysis.
(§19) The equation of first order kinetics was used to calculate T1/2 and CLin t(mic ) (µL/min/mg):
Equation of first order kinetics:
(§20) <=@(#<S) X= Y<@Z[ \] #_⁄#‘ #<SZ[a[#$b cZ[@L<= <= ZL$S@<[=
𝐶𝐿 = 𝐶𝐿 ∙ #_ #<SZ[a[#La ∙ _ b<Y LZ
(§21) <=@(b<Y LZ) <=@(#<S) _ b<Y LZ D_ e[fg hL<_i@
(§22) T1/2 is half life and CLin t ( mic ) is the intrinsic clearance
(§23) CLin t ( mic ) = 0.693/half life/mg microsome protein per mL
(§24) CLin t(l iv e r) = CLin t ( mic ) * mg microsomal protein/g liver weight * g liver weight/kg body weight
Extraction ratio calculation
(§25) Extraction ratio (ER) = CLH/QH= CLint(liver) / (CLint(liver) + Qh)
Qh is Hepatic Blood Flow (mL/min/kg)
Data set [4] relates to Mtb. The data set is classed as cell-based, Mycobacterium tuberculosis. Particulars: 10 μM.
For data set [5], the target named is hERG potassium channel (Homo sapiens, UniProt Q12809). Description: Manual patch clamp assay for hERG inhibition. For orientation: Patch clamp records ionic current or voltage across a cell membrane.
Data set [6] concerns Mtb. The data set is classed as cell-based, Mycobacterium tuberculosis. The note with it: media containing fatty acid.
Data set [7] has as its system CYP1A2, CYP2C9, CYP2C19, CYP2D6, CYP3A4. Description: in vitro. Particulars: human, pH 7.2.
For data set [8], the system named is Mtb in murine macrophages. Description: Mtb replication in macrophages (intramacrophage EC50). The data set is classed as cell-based. The note with it: Mycobacterium tuberculosis, Macrophage.
The subject of data set [9] is Erdman Mtb. Description: Mouse infection, BALB/c. The data set is classed as in vivo, BALB/c mice.
The subject of data set [10] is Mtb. Briefly: microbe, parasite or virus in culture. Format: cell-based. Particulars: Mycobacterium tuberculosis; media with cholesterol and acetate.
The nature of data set [11]: physchem. Particulars: pH 6.8, aqueous buffer, kinetic from dmso stock.
The nature of data set [12]: in vitro. The note with it: human.
The test system of data set [13] is Mtb. Description: Quantification of bacterial cAMP in Mtb. Format: cell-based, Mycobacterium tuberculosis.
The nature of data set [14]: in vitro. Particulars: human. This is another data set of the same source.
In data set [15] the test system is Mtb. Briefly: microbe, parasite or virus in culture. Format: cell-based. The note with it: Mycobacterium tuberculosis; read-out: 7H9 OADC EC50.
The test system of data set [16] is MKR strain of Mtb. The arrangement: method as in PMID 33542438. The note with it: infected macrophages ref 13; cited from earlier work.
Data set [17] deals with Erdman Mtb. Briefly: Mouse infection, C3HeB/FeJ. The data set is classed as in vivo, C3HeB/FeJ mice. The note with it: 50 mg/kg oral once-daily weeks 4-8, intranasal infection.
For data set [18] the following is noted: 0.98 µM, pH 7.2. This is another data set of the same source.
Description: Liver microsomal stability
as §1, §2, §3, §4, §5, §6, §7, §8, §9, §10, §11, §12, §13, §14, §15, §16, §17, §18, §19
Equation of first order kinetics:
as §20
𝐶𝐿 = 𝐶𝐿 ∙ #_ #<SZ[a[#La ∙ _ b<Y LZ
as §21, §22, §23, §24
Extraction ratio calculation
as §25
Qh is Hepatic Blood Flow (mL/min/kg)
Data set [19] deals with Mtb. Description: microbe, parasite or virus in culture. Format: cell-based, Mycobacterium tuberculosis. The note with it: Mycobacterium tuberculosis, cholesterol media.
For data set [20] the following is noted: 0.98 µM, pH 7.2. The source holds these as a separate data set.
Description: Liver microsomal stability
as §1, §2, §3, §4, §5, §6, §7, §8, §9, §10, §11, §12, §13
(§26) shaking at 100 rpm. Reactions were stopped by the addition of 100 µl cold acetonitrile (100%) […]
(§27) prior to metabolite quantification by LC-MS/MS a nalysis. […]
Data set [21] is described as follows: in vitro. The note with it: human, plasma.
For data set [22] the following is noted: 0.98 µM, pH 7.2. The source holds these as a separate data set.
Description: Liver microsomal stability
as §1, §2, §3, §4, §5, §6, §7, §8, §9, §10, §11, §12, §13, §26, §27
Setting [23] is: 50 mg/kg oral once-daily weeks 4-8, intranasal infection, BALB/c.
Setting [24] is: 30mg/kg oral once-daily weeks 4-8, intranasal infection, BALB/c.

Sequence of hERG potassium channel (Q12809 whole entry): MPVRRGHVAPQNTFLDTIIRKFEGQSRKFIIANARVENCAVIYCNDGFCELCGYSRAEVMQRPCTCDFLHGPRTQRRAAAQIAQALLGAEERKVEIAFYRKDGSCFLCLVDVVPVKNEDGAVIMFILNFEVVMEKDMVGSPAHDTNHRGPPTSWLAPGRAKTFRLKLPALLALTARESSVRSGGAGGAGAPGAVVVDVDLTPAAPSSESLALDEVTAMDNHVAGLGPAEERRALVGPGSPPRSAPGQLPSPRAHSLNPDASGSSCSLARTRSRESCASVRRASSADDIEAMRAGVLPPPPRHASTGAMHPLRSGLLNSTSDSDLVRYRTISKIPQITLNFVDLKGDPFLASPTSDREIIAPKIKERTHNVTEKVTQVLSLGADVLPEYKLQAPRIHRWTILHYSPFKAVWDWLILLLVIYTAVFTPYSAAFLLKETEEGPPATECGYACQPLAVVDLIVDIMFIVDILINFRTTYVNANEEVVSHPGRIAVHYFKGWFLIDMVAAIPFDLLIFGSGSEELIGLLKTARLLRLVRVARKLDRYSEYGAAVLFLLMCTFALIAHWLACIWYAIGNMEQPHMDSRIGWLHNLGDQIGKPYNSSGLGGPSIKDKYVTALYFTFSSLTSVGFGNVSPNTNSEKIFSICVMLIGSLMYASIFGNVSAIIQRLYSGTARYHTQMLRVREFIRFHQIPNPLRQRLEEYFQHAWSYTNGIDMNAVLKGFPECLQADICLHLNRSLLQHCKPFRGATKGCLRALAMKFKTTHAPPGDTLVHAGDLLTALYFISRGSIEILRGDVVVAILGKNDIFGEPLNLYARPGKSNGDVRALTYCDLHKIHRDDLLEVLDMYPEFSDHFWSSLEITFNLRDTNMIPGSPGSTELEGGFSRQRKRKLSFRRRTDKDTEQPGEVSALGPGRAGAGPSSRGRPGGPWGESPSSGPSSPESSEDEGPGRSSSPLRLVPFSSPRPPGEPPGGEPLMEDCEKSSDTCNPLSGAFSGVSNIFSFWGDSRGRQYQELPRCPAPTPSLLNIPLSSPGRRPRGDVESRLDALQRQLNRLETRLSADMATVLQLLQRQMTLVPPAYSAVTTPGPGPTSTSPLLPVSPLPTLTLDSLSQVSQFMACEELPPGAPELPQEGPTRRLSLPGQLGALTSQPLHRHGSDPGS

Turning to `Cc1nonc1CC(=O)N1CCC(n2nnc(-c3ccc(F)cc3)n2)CC1` [V-59, 1-(4-(5-(4-fluorophenyl)-2H-tetrazol-2-yl)piperidin-1-yl)-2-(4-methyl-1,2,5-oxadiazol-3-yl)ethan-1-one], the fraction unbound – broadly, free concentration divided by total concentration – at 4 h in data set [1] was 0.173. Further, the “decrease of 14CO2 release from [4-14C]-cholesterol” value in data set [2] is ~ 89%. The “14CO2 release from [4-14C]-cholesterol” value in [2] (CompD204 strain lacking cyclase domain) was “did not prevent”; in [2] (CompFull strain) it was “inhibited”. Moreover, the ER human in data set [3] stood at 0.3. Besides, the “decrease of prpD'::GFP signal” value in data set [4] (CompFull strain) is ~ 90%; in data set [4] (WT), ~ 50%. For the same molecule, in data set [4] (ΔRv1625c or CompD204 strains, cholesterol media or macrophage infection), the “prpD'::GFP signal” value is recorded as “did not impact”. In data set [5], the IC50 (commonly the concentration needed to halve the response being measured) worked out at 8.9 µM. Also, the “14CO2 released from breakdown of [U-14C]-palmitate” value in [6] is recorded as “no measurable effect”. In [7], this molecule showed an IC50 at 10 min of over 30 µM. Moreover, the EC50 (commonly the concentration that produces a half-maximal response) in [8] is 0.3 µM; in data set [10] it was over 50 µM; in data set [15] it was over 50 µM; in [19] (read-out: EC50 in cholesterol media), 0.7 µM. Besides, the “reduction in lung CFUs” value in data set [9] (setting [23]) is ~ 0.4 log10; in [17], ~ 0.5 log10. In addition, in [9] (setting [23]), the “reduction of extent of lung inflammation” value was ~ 50%. In addition, the concentration in solution in data set [11] (solubility at 24 h) came to 4.63 µM (≈ 1.72 µg/mL). Also, the CC50 at 72 h in data set [12] and in [14] was over 20 µM in each case. In addition, the cAMP induction was ~ 70 fold in [13] and ~ 140 fold in [13] (CompFull strain, 24 hours). In data set [16], the “intracellular survival of MKR strain” value was “selectively reduced intracellular survival”. The molecule further came in with an ER mouse in data set [18] of 0.3.

Regarding `Cc1nonc1CC(=O)N1CCC(c2nc(-c3ccc(F)cc3)no2)CC1` [mCIS635], the free fraction (fraction unbound) at 4 h in [1] was 0.056. Moreover, the ER human in [3] stood at 0.3. The molecule further returned an IC50 in [5] of 9.5 µM. This molecule also returned an IC50 at 10 min in data set [7] of over 50 µM. The EC50 in data set [8] is 0.27 µM; in data set [10], over 50 µM; in data set [15] it was over 50 µM; in [19] (read-out: Cholesterol EC50) it was 0.15 µM. Besides, the concentration in solution in data set [11] (solubility at 24 h) came to 34.4 µM (≈ 12.8 µg/mL). Besides, the CC50 at 72 h in data set [12] and in [14] was over 20 µM throughout. Also, in data set [18], the ER mouse is reported as 0.4.

As to `Cn1ncnc1CC(=O)N1CCC(c2nc(-c3ccc(Cl)c(Cl)c3)no2)CC1` [mCLB073, 1-(4-(3-(3,4-dichlorophenyl)-1,2,4-oxadiazol-5-yl)-1-piperidinyl)-2-(2-methyl-2H-1,2,4-triazol-3-yl)-1-ethanone], the results for the fraction unbound at 4 h in [1] and in [21] were 0.037 and 0.024, respectively. In data set [20], this molecule returned an ER dog of 0.3. The same molecule returned an ER human in data set [3] of 0.3. The IC50 in data set [5] was determined as 13.8 µM. The molecule further gave an IC50 at 10 min in [7] of over 50 µM. In addition, the EC50 in data set [8] is 1.2 µM; in [10] it was over 50 µM; in data set [15], over 50 µM; in data set [19] (read-out: Cholesterol EC50), 0.027 µM. Also, the “decrease of extent of lung pathology” value in data set [9] (setting [24]) is ~ 45%. Also, the “reduction in lung CFUs” value is listed as ~ 0.4 log10 in [9] (setting [24]) and ~ 0.4 log10 in [9] (mouse, in vivo). Also, the “bacterial burden in the lungs when added to a sub-optimal dose of rifampicin” value in [9] (mouse, in vivo) is “did not increase the bacterial burden”. Besides, the solubility (usually how much of the substance goes into solution per volume) at 24 h in [11] amounted to 160 µM (≈ 67.4 µg/mL). In addition, the CC50 at 72 h in data set [12] and in data set [14] was over 20 µM throughout. Besides, the cAMP synthesis result in [13] (Figs 3B and S2C) was “activates cAMP synthesis”. For the same molecule, the ER rat in [22] was determined as 0.2. In addition, the ER mouse in data set [18] was found to be 0.3.

Turning to `Cn1ncnc1CC(=O)N1CC2CC1CC2c1nc(-c2ccc(Cl)c(F)c2)no1` (centres unmarked) [mCLF178], the fraction unbound at 4 h is 0.116 in data set [1] and 0.111 in data set [21]. The molecule further registered an ER dog in data set [20] of 0.3. This molecule yielded an ER human in data set [3] of 0.3. Moreover, in [5], inhibition was half-maximal at 22.9 µM (IC50). This molecule also came in with an IC50 at 10 min in [7] of over 30 µM. Besides, the EC50 in data set [8] is over 20 µM; in data set [15], over 50 µM; in data set [19] (read-out: Cholesterol EC50), 0.083 µM. In data set [11], this molecule had a solubility at 24 h of 186 µM (≈ 77.5 µg/mL). Further, the CC50 at 72 h in data set [12] and in data set [14] was over 20 µM in each case. Further, in [22], the ER rat is listed as 0.2. Besides, the ER mouse in data set [18] came out at 0.3.
